Measured values: patent publication US10945989B2, “Perinatal treatment with a flavonoid agonist of the TrkB receptor for BDNF rescues neurogenesis and behavior in the Ts65Dn mouse model of DS” (ALMA MATER STUDIORUM—Universita' di Bologna, priority 2017, dated 2021)

Columns and labels:
[1] = tested on: NPCs from the SVZ of Ts65Dn mice; assay: Proliferation of NPC cultures (Cell Titer-Glo); format: cell-based, mouse; conditions: 96 h
Procedure: (§1) Cells were isolated from the subventricular zone (SVZ) of the lateral ventricle and the subgranular zone (SGZ) of the hippocampal dentate gyrus (DG) of newborn (P1-P2) euploid and Ts65Dn mice. Briefly, brains were removed, the SVZ and SGZ regions were isolated and individually collected in ice-cold PIPES buffer pH 7.4. After centrifugation, tissue was digested for 10 min at 37° C. using Trypsin/EDTA 0.25% (Life Technologies) aided by gentle mechanical dissociation. Cell suspension from each individual mouse was plated onto 25 cm^2 cell-culture flask (Thermo Fisher Scientific) and cultured as floating neurospheres in medium containing basic fibroblast growth factor (bFGF, 10 ng/ml; Peprotech) and epidermal growth factor (EGF, 20 ng/ml; Peprotech) using an established protocol (Meneghini et al., 2014). […] Cell proliferation was quantified as relative luminescence units (RLU) values using Cell Titer-Glo viability assay reagent (Promega) on aVictor^3-V plate reader (PerkinElmer). […] In each experiment, five fields/well (corresponding to about 150-200 cells/well) were counted with a 60× objective by a Leica DMIRB inverted fluorescence microscope. Immunoreactive cells were counted and their percentage over total viable cells was calculated. […]

[2] = tested on: NPCs from the SGZ of Ts65Dn mice; assay: Neuron maturation: cells exhibiting neuritic processes, SGZ NPCs; format: cell-based, mouse; conditions: 96 h, vs standard medium
Procedure: as §1

cultures of NPCs = assay: Apoptotic cells in NPC cultures; format: cell-based, mouse; conditions: data not shown
[3] = Body and brain weight, neonatal treatment (P15, P45); format: in vivo, mouse
Procedure: Euploid and Ts65Dn mice received a daily subcutaneous injection (at 9-10 am) of 7,8-DHF (5.0 mg/kg in vehicle: PBS with 1% DMSO) or vehicle from postnatal day 3 (P3) to postnatal day 15. This timing was chosen because it corresponds to that previously used to test the effects of fluoxetine and other pharmacotherapies in the neonate Ts65Dn mouse (Bianchi et al., 2010b; Giacomini et al., 2015; Stagni et al., 2016). Mice that received 7,8-DHF will be called “treated mice” (treated euploid mice: n=25; treated Ts65Dn mice: n=15). Mice that received the vehicle will be called “untreated mice” (untreated euploid mice: n=35; untreated Ts65Dn mice: n=21). […] The brains were excised and cut along the midline. The left hemisphere of a group of mice was fixed by immersion in PFA 4% and frozen, and the left hemisphere of another group of mice was used for Golgi staining. The right hemispheres of all mice was kept at −80° C. and used for western blotting.
Euploid and Ts65Dn mice received a daily subcutaneous injection (at 9-10 am) of 7,8-DHF (5.0 mg/kg in vehicle) or vehicle from postnatal day 3 (P3) to postnatal day P45-P50. […] These mice will be called here P45 mice. Mice were behaviorally tested in the 6 days that preceded the day of sacrifice (FIG. 2B).
The body weight of mice of all groups was recorded prior to sacrifice and the brain weight was recorded immediately after brain removal. The number of animals used for each experimental procedure is specified in the figure legends and in Table 3.

[4] = Liu et al., 2010 and 2013; cited from earlier work
[5] = dose of 5.0 mg/kg, Liu et al., 2010; cited from earlier work
[6] = P15 Ts65Dn mice, 5.0 mg/kg s.c. daily P3-P15
[7] = P45 Ts65Dn mice, 5.0 mg/kg s.c. daily P3-P45

With `O=c1cc(-c2ccccc2)oc2c(O)c(O)ccc12` [7,8-DHF, 7,8-dihydroxyflavone] the “proliferation rate of trisomic NPCs” value ([1]; highest concentration 10.0 μM) was “reduced proliferation”, the “proliferation rate of trisomic NPCs” value ([1]; tested concentrations 0.3-10.0 μM, vs vehicle) was “none of the tested concentrations was able to increase the proliferation rate” and the “concentrations that increased the percentage of cells exhibiting neuritic processes” value [2] was “higher than 1.1 μM”. The “number of apoptotic cells” value (cultures of NPCs) was “no effect of treatment”, the body weight [3, 6] was “did not further reduce the body weight” and the brain weight [3, 6] was “did not cause a further brain weight reduction”. For the same compound, the brain weight ([3]; P15 euploid mice, 5.0 mg/kg s.c. daily P3-P15, vs untreated) was “slight but significant brain weight reduction”, the body weight [3, 7] was “did not further reduce their body weight” and the “brain weight (reduction vs untreated euploid mice)” value [3, 7] was “this difference disappeared”. The body weight ([3]; P45 euploid mice, 5.0 mg/kg s.c. daily P3-P45, vs untreated) was “body weight reduction”, the blood-brain barrier penetration [4] was “penetrates the blood-brain barrier” and the toxic effects [5] was “no toxic effects”.
